Patent publication US10253255B2, “Phosphorescent nanoparticles and their uses in biosensing and bioimaging” (University of North Texas, priority 2015, dated 2019)

Assays:
SNU-5 cells = test: MTT cell viability (cytotoxicity); settings: SNU-5 cell lines, buffered aqueous solution, FIG. 15
Description: SNU-5 cells were purchased from ATCC (cat. # CRL-5973) (American Type Culture Collection, Manassas, Va.), and maintained in Iscove's Modified Dulbecco's Medium (IMDM) (ATCC, cat. #30-2005) with 10% FBS (Fisherbrand Research Grade Fetal Bovine Serum, cat. #03-600-511) (Fisher Scientific UK Ltd., Loughborough). Cells (10,000/well) were seeded on 96-well plates and the desired particle amounts were added to the wells. The plates were incubated for an additional 24 h at 37° C. (5% CO2). After incubation, cell viability was evaluated using MTT. MTT dissolved in culture media (5 mg/mL) was added to each well (25 L/well). The cells were incubated for 4 h at 37° C. (5% CO2) after which time 0.08 M HCl in 2-propanol (100 L/well) was added. Light absorption was measured on a Synergy 2 multi-mode microplate reader (BioTek, Winooski, Vt.). The viability of the cells exposed to particles was expressed as a percentage of the viability of cells grown in the absence of particles on the same plate.
Cells were grown to ˜90% confluence in 96 well plate format in complete growth media containing 10% fetal bovine serum. PCHNPs or TPPTs in 0.1 wt % chitosan were dosed on cells at concentrations ranging from 0.5 to 200 μg/mL. Viability after 24 h of exposure was evaluated using MTT reagent and compared to healthy cells on the same plate. […]

[1] = In vitro hypoxia detection by Pt—POP (epi-fluorescence microscope); settings: Pt—POP aqueous solution in a Petri dish
Source text: For identification of hypoxic environments, Pt—POP has been used. The efficiency of Pt—POP as an oxygen sensor is shown in FIG. 16, including its effective usage for live bioimaging applications. […] The progressive phosphorescence intensity signal increase immediately after oxygen levels are decreased below 20% for the Pt—POP aqueous solution in a Petri dish should be noted. Results for this sensor in conjunction with the excellent animal model for hypoxia, C. elegans worms, are shown in FIG. 17, whereas similar results in E. coli bacteria and in D. rerio zebra fish are shown in FIGS. 18 and 19, respectively. In FIG. 18, conditions were: 18A: E. coli bacteria with 64X, DIC; 18B: E. coli bacteria with 64X, 405-520,222 g, 0.4 ms; 18C: E. coli bacteria incubated with Pt—POP 64X, 405-520,222 g, 0.4 ms; 18D: E. coli bacteria incubated with Pt—POP on 8th day 64X, 405-520,222 g, 0.4 ms. In FIG. 19, pictures were taken for stationary fish directly after injection (A) and 7 minutes after induced hypoxia (B), and for a swimming fish (C).

[2] = Storage and solution stability
[3] = biological target: T1, Bovine Serum Albumin (BSA) (Bos taurus, UniProt P02769); test: Labelling of BSA with Pt—POP, absorbance after dialysis; format: binding; settings: after 24 hours of dialysis
T1 construct: purchased Sigma-Aldrich
T1 sequence (P02769 25-607): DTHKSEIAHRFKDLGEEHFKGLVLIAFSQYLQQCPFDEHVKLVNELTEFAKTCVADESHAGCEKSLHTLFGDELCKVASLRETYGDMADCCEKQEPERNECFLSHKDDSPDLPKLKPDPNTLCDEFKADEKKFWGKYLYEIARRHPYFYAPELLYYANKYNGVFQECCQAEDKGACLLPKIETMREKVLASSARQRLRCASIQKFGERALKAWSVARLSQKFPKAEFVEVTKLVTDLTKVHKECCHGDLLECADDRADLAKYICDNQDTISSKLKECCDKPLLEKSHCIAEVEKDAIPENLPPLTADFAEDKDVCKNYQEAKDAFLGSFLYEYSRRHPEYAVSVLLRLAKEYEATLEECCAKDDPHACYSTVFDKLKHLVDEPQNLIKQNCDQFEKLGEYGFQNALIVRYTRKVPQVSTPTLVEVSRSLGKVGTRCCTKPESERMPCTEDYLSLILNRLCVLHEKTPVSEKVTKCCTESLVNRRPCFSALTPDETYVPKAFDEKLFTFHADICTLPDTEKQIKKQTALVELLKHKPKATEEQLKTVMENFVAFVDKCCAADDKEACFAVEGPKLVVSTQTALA
Source text: A common model protein (BSA=bovine serum albumin) was labeled with Pt—POP to enable BSA differentiation, with oxygen sensitivity, in biological media.

| Molecule | biological toxicity (MTT assay) (SNU-5 cells) | oxygen level below which phosphorescence intensity signal increases [1] | stability in solution ([2]; in presence of a biocompatible polymer such as chitosan or PAN) | stability in solution ([2]; without polymer) | absorbance of PBS control lower than BSA sample (binding to BSA) [3] |
| --- | --- | --- | --- | --- | --- |
| O=S(=O)([O-])c1cccc(P(c2cccc(S(=O)(=O)[O-])c2)c2cccc(S(=O)(=O)[O-])c2)c1.[Na+].[Na+].[Na+] [TPPTS, 3,3′,3″-Phosphanetriyltris(benzenesulfonic acid) trisodium salt, reference compound] | benign |  |  |  |  |
| M4[Pt2(P2O5H2)4].2H2O [Pt—POP] |  | below 20% | dramatically enhanced from minutes to years | long-term instability | approximately 10 times |
| Na8[Au(TPPTS)3] [AuP] | benign |  |  |  |  |
